Results taken from PubChem BioAssay AID256 (DTP/NCI, 2004).
Toxic doses and inconclusive results are not listed. Rule for the calls: active = survival T/C of 150% or more; inactive = T/C below 125% in these data.

Test system: CD2F1 mice, L1210 leukemia ip, survival T/C
Experiment: NCI In Vivo Anticancer Drug Screen. Data for tumor model L1210 Leukemia (intraperitoneal) in CD2F1 (CDF1) mice
Settings: higher = longer survival
Outline: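 Tumor-bearing mice (transplanted tumor) were split into treated and vehicle control groups, and the measured endpoint of each treated group was divided by that of its vehicle controls.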

[1] = endpoint: mean survival time, dose: 100.0 mg/kg/injection, schedule: Q01DX009 (ip), vehicle: saline with Tween-80
[2] = endpoint: mean survival time, dose: 100.0 mg/kg/injection, schedule: Q04DX003 (ip), vehicle: saline with Tween-80
[3] = endpoint: mean survival time, dose: 200.0 mg/kg/injection, schedule: Q01DX009 (ip), vehicle: saline with Tween-80
[4] = endpoint: mean survival time, dose: 200.0 mg/kg/injection, schedule: Q04DX003 (ip), vehicle: saline with Tween-80
[5] = endpoint: mean survival time, dose: 100.0 mg/kg/injection, schedule: Q04DX003 (ip), vehicle: Klucel (hydroxypropylcellulose) (HPC)
[6] = endpoint: mean survival time, dose: 200.0 mg/kg/injection, schedule: Q04DX003 (ip), vehicle: Klucel (hydroxypropylcellulose) (HPC)
[7] = endpoint: mean survival time, dose: 400.0 mg/kg/injection, schedule: Q04DX003 (ip), vehicle: Klucel (hydroxypropylcellulose) (HPC)
[8] = endpoint: mean survival time, dose: 25.0 mg/kg/injection, schedule: Q04DX003 (ip), vehicle: saline with Tween-80
[9] = endpoint: mean survival time, dose: 400.0 mg/kg/injection, schedule: Q04DX003 (ip), vehicle: saline with Tween-80
[10] = endpoint: median survival time, dose: 50.0 mg/kg/injection, schedule: Q04DX002 (ip), vehicle: saline with Tween-80
[11] = endpoint: median survival time, dose: 100.0 mg/kg/injection, schedule: Q04DX002 (ip), vehicle: saline with Tween-80
[12] = endpoint: median survival time, dose: 200.0 mg/kg/injection, schedule: Q04DX002 (ip), vehicle: saline with Tween-80

Measured: T/C

O=[N+]([O-])c1cccc(C[n+]2ccccc2C2OCCO2)c1
inactive: endpoint: mean survival time, dose: 6.25 mg/kg/injection, schedule: Q01DX009 (ip), vehicle: saline 101 % of control | endpoint: mean survival time, dose: 12.5 mg/kg/injection, schedule: Q01DX009 (ip), vehicle: saline 101 % of control | endpoint: mean survival time, dose: 12.5 mg/kg/injection, schedule: Q04DX003 (ip), vehicle: saline 104 % of control | endpoint: mean survival time, dose: 25.0 mg/kg/injection, schedule: Q01DX009 (ip), vehicle: saline 96 % of control | endpoint: mean survival time, dose: 25.0 mg/kg/injection, schedule: Q04DX003 (ip), vehicle: saline 114 % of control

C=CCOC(=O)CCCCCCCCC(=O)OCC=C
inactive: [1] 97 % of control | [2] 96 % of control | [3] 95 % of control | [4] 94 % of control

[O-][n+]1c2c(cc3ccccc31)Cc1ccccc1-2
inactive: [5] 98 % of control | [6] 96 % of control | [7] 93 % of control

CC(O)CN1CCN(CC(C)O)CC1.[I][Pt+2][I] (configuration not stated)
inactive: [8] 102 % of control | endpoint: mean survival time, dose: 50.0 mg/kg/injection, schedule: Q04DX003 (ip), vehicle: saline with Tween-80 109 % of control | [2] 95 % of control | [4] 104 % of control | [9] 100 % of control

C(=C\c1ccncc1)/c1ccccc1
inactive: [2] 93 % of control | [4] 92 % of control | [9] 93 % of control

CC1CC(C)(C)NC(CC2CCCCC2O)O1 (configuration not stated)
inactive: [2] 94 % of control

N.N.N.N.N.N#CN=C(N)N.[Co+3].[O-][Cl+3]([O-])([O-])[O-]
inactive: endpoint: mean survival time, dose: 25.0 mg/kg/injection, schedule: Q04DX002 (ip), vehicle: saline 97 % of control | endpoint: mean survival time, dose: 50.0 mg/kg/injection, schedule: Q04DX002 (ip), vehicle: saline 101 % of control | endpoint: mean survival time, dose: 100.0 mg/kg/injection, schedule: Q04DX002 (ip), vehicle: saline 101 % of control

CN(C)c1ccc(N=Nc2ccc(Cl)c(Cl)c2)cc1
inactive: [2] 98 % of control | [4] 95 % of control | [9] 96 % of control

COC(=O)/C(C#N)=C\c1ccccc1
inactive: endpoint: mean survival time, dose: 50.0 mg/kg/injection, schedule: Q01DX009 (ip), vehicle: saline with Tween-80 95 % of control | [1] 95 % of control | [3] 92 % of control

NC1CC[N-]CC1.NC1CC[N-]CC1.NC1CC[N-]CC1.NC1CC[N-]CC1.[Cl][Rh][Cl]
inactive: endpoint: mean survival time, dose: 6.25 mg/kg/injection, schedule: Q04DX003 (ip), vehicle: saline with Tween-80 98 % of control | endpoint: mean survival time, dose: 12.5 mg/kg/injection, schedule: Q04DX003 (ip), vehicle: saline with Tween-80 101 % of control | [8] 95 % of control

O=S(c1ccccc1)C1OC12CCCCC2 (configuration not stated)
inactive: [2] 97 % of control | [4] 98 % of control | [9] 97 % of control

CCCCNC(=O)C(C)S(=O)(=O)c1ccc(C)cc1 (configuration not stated)
inactive: [1] 103 % of control | [3] 97 % of control | endpoint: mean survival time, dose: 400.0 mg/kg/injection, schedule: Q01DX009 (ip), vehicle: saline with Tween-80 95 % of control

NCc1cn(C2OC(CO)C(O)C2O)c2nc[nH]c(=O)c12 (configuration not stated)
inactive: endpoint: mean survival time, dose: 25.0 mg/kg/injection, schedule: Q01DX009 (ip), vehicle: distilled water + Tween-80 103 % of control | endpoint: mean survival time, dose: 50.0 mg/kg/injection, schedule: Q01DX009 (ip), vehicle: distilled water + Tween-80 103 % of control | endpoint: mean survival time, dose: 100.0 mg/kg/injection, schedule: Q01DX009 (ip), vehicle: distilled water + Tween-80 101 % of control | endpoint: mean survival time, dose: 200.0 mg/kg/injection, schedule: Q01DX009 (ip), vehicle: distilled water + Tween-80 98 % of control | endpoint: mean survival time, dose: 400.0 mg/kg/injection, schedule: Q01DX009 (ip), vehicle: distilled water + Tween-80 115 % of control

C[C@@H]1C[C@H]2CC[C@H](O2)[C@H](C)C(=O)O[C@@H](C)C[C@@H]2CC[C@@H](O2)[C@@H](C)C(=O)O[C@H](C)C[C@H]2CC[C@H](O2)[C@H](C)C(=O)O[C@@H](C)C[C@@H]2CC[C@@H](O2)[C@@H](C)C(=O)O1
inactive: endpoint: mean survival time, dose: 8.0 mg/kg/injection, schedule: Q01DX008 (iv), vehicle: saline 98 % of control | endpoint: mean survival time, dose: 16.0 mg/kg/injection, schedule: Q01DX008 (iv), vehicle: saline 98 % of control | endpoint: mean survival time, dose: 32.0 mg/kg/injection, schedule: Q01DX008 (iv), vehicle: saline 95 % of control

Cc1ccc(S(=O)(=O)NC(=O)C(=[N+]=[N-])c2ccc([N+](=O)[O-])cc2)cc1
inactive: endpoint: median survival time, dose: 25.0 mg/kg/injection, schedule: Q04DX002 (ip), vehicle: saline with Tween-80 100 % of control | [10] 90 % of control | [11] 90 % of control | [12] 90 % of control

CN(C)c1ccc(C2OC3(CCCCC3)C[N+]23CCCC3)cc1 (configuration not stated)
inactive: endpoint: mean survival time, dose: 3.12 mg/kg/injection, schedule: Q01DX009 (ip), vehicle: saline with Tween-80 101 % of control | endpoint: mean survival time, dose: 6.25 mg/kg/injection, schedule: Q01DX009 (ip), vehicle: saline with Tween-80 97 % of control | endpoint: mean survival time, dose: 12.5 mg/kg/injection, schedule: Q01DX009 (ip), vehicle: saline with Tween-80 97 % of control

O/N=C1/CCCC/C1=C/c1ccc(Cl)cc1
inactive: [5] 98 % of control | [6] 100 % of control | [7] 100 % of control

COc1cc2cc3c4ccc(OC)c(OC)c4cc[n+]3c(C)c2cc1OC (tested in a mixture with another compound)
inactive: endpoint: mean survival time, dose: 6.25 mg/kg/injection, schedule: Q01DX009 (ip), vehicle: other 108 % of control | endpoint: mean survival time, dose: 12.5 mg/kg/injection, schedule: Q01DX009 (ip), vehicle: other 106 % of control | endpoint: mean survival time, dose: 25.0 mg/kg/injection, schedule: Q01DX009 (ip), vehicle: other 116 % of control | endpoint: mean survival time, dose: 50.0 mg/kg/injection, schedule: Q01DX009 (ip), vehicle: other 97 % of control

CCCCCCCCCCCCCCCC(=O)Oc1ccc(/C(CC)=C(/CC)c2ccc(OC(=O)CCCCCCCCCCCCCCC)cc2)cc1
inactive: [1] 91 % of control

O/N=C\c1ccc(/C=N/O)cc1
inactive: [2] 94 % of control | [4] 92 % of control

O=C(CC(=O)C(F)(F)F)c1cccs1.O=C(CC(=O)C(F)(F)F)c1cccs1.O=C(CC(=O)C(F)(F)F)c1cccs1.[Sm]
inactive: [10] 100 % of control | [11] 88 % of control | [12] 100 % of control
